The test system of one assay is LPS-induced PBMCs. The experiment in a line: Inflammatory cytokine release from LPS-induced PBMCs (Luminex). Particulars: fold change from LPS-treated PBMCs, compounds 10 μM (DEX 1 μg/ml) 2 h, then LPS 0.1 μg/ml 24 h, negative = reduced; for IL-12 (p70) / L-31: OOR = out of standard curve range. The class given is cell-based, human. The method, then: Compounds of the invention were assayed for their effect on inflammatory cytokine release from lipopolysaccharides (LPS)-induced PBMCs, isolated from a human blood sample, the results of which are provided in Table 7 as fold change. Exemplary methods for quantifying secretion of inflammatory cytokines in PBMCs are known in the art, for example, as described in Hailer et al., Infection and Immunity. 68(2):752-759 (2000); and Merlini et al., Frontiers in Immunology. 7:614 (2016); each of which is incorporated herein by reference with respect to methods for evaluating cytokine release in PBMCs.
In brief, human blood samples from healthy volunteers were collected and PBMCs were isolated. PBMCs were cultured and each compound was assayed in triplicate at a final concentration of 10 μM for 2 hours. 1 μg/ml dexamethasone (DEX) served as a positive control. LPS was added at a final concentration of 0.1 μg/ml and further incubated for 24 hours. At the end of the incubation, the supernatants were collected and the levels of a panel of secreted cytokines were measured by a Human Magnetic Luminex® assay (R&D). The results in Table 7 are presented as a fold change from LPS-treated PBMCs. Reduced levels are expressed by negative values. OOR denotes values that are out of the standard curve range for the specific cytokine and thus, could not be accurately measured. Cytotoxicity was also determined. Compounds with cytotoxicity ≥50% was considered cytotoxic. Baseline cytotoxicity of untreated PBMCs was 17% and all compounds presented in Table 7 induced cytotoxicity below 25%.

The target of assay [1] is T1, CB1 receptor (Homo sapiens, UniProt P21554). In words: cAMP Assay #2: Hit Hunter cAMP assay, Gi-coupled agonist activity, CB1. More on the design: host or cells: PathHunter cell lines. Type of assay: cell-based. The method, then: (§1) Compounds of the invention were assayed in the Hit Hunter® cAMP assay to determine Gi-coupled agonist activity on the CB1 and CB2 receptors, the results of which are provided in Table 5.
(§2) The Hit Hunter® cAMP assay monitors the activation of a GPCR via Gi and […] secondary messenger signaling in a homogenous, non-imaging assay format using a technology developed by DiscoverX called Enzyme Fragment Complementation (EFC) with β-galactosidase (β-Gal) as the functional reporter. […] ED is fused to cAMP and in the assay competes with cAMP generated by cells for binding to a cAMP-specific antibody. Active β-Gal is formed by complementation of exogenous EA to any unbound ED cAMP. Active enzymes can then convert a chemiluminescent substrate, generating an output signal detectable on a standard microplate reader.
(§3) cAMP Hunter cell lines were expanded from freezer stocks according to standard procedures. Cells were seeded in a total volume of 20 μL into white walled, 384-well microplates and incubated at 37° C. for the appropriate time prior to testing. cAMP modulation was determined using the DiscoverX Hit Hunter cAMP XS+ assay. For Gi agonist activity determination, cells were incubated with sample in the presence of EC80 forskolin to induce response (20 μM and 25 μM in the CB1 and CB2 assays, respectively). Media was aspirated from cells and replaced with 15 μL 2:1 HBSS/10 mM HEPES:cAMP XS+Ab reagent.
(§4) Intermediate dilution of sample stocks was performed to generate 4× sample in assay buffer. 5 μL of 4× compound was added to cells and incubated at 37° C. or room temperature for 30 or 60 minutes. Final vehicle concentration was 1%. Assay signal was generated through incubation with 20 μL cAMP XS+ED/CL lysis cocktail for one hour at room temperature. Microplates were read following signal generation with a PerkinElmer Envision™ instrument for chemiluminescent signal detection. Compound activity was analyzed using CBIS data analysis suite (Chem Innovation, CA). For agonist assays, percentage activity was calculated using the following formula: % Activity=100%×(1−(mean RLU of test sample−mean RLU of Max control ligand)/(mean RLU of vehicle control−mean RLU of Max control ligand). Control ligand was the non-selective CB1/CB2 agonist CP55,940.
For orientation: Changes in cAMP serve as a functional read-out for many G protein-coupled receptors.

Assay [2] deals with T1, CB1 receptor. In words: cell-based. More on the design: host or cells: PathHunter cell lines. The protocol:
(§5) The PathHunter® β-Arrestin assay monitors the activation of a GPCR in a homogenous, non-imaging assay format using a technology developed by DiscoverX called Enzyme Fragment Complementation (EFC) with β-galactosidase (3-Gal) as the functional reporter. […] EA is fused to β-Arrestin and PK is fused to the GPCR of interest.
(§6) PathHunter cell lines were expanded from freezer stocks according to standard procedures. Cells were seeded in a total volume of 20 μL into white walled, 384-well microplates and incubated at 37° C. for the appropriate time prior to testing. For agonist activity determination, cells were incubated with sample to induce response. Intermediate dilution of sample stocks was performed to generate 5× sample in assay buffer. 5 μL of 5× sample was added to cells and incubated at 37° C. or room temperature for 90 to 180 minutes. Vehicle concentration was 1%. Assay signal was generated through a single addition of 12.5 or 15 μL (50% v/v) of PathHunter Detection reagent cocktail, followed by a one hour incubation at room temperature. Microplates were read following signal generation with a PerkinElmer Envision™ instrument for chemiluminescent signal detection. Compound activity was analyzed using CBIS data analysis suite (ChemInnovation, CA). For agonist assays, percentage activity was calculated using the following formula: % Activity=100%×(mean RLU of test sample− mean RLU of vehicle control)/(mean MAX control ligand− mean RLU of vehicle control).

Assay [3] deals with T2, CB2 receptor (Homo sapiens, UniProt P34972). In words: cAMP Assay #2: Hit Hunter cAMP assay, Gi-coupled agonist activity, CB2. Type of assay: cell-based. Also noted: host or cells: cAMP Hunter cell lines. Particulars: for CB2 fold selectivity: Hit Hunter cAMP, CB1 EC50 / CB2 EC50. The method, then:
as §1, §2, §3, §4

The target in assay [4] is T2, CB2 receptor. In words: cell-based. More on the design: host or cells: cAMP Hunter cell lines. Particulars: PathHunter agonist mode; read-out: CB2 Activity (β-Arrestin). The protocol:
as §5, §6

In assay [5] the target is T1, CB1 receptor. In words: CB1 competitive radioligand binding assay ([3H] SR141716A). More on the design: expressed in transfected cells; host or cells: Chem-1 cells. Summed up: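 Chem-1 cells expressing human recombinant CB1 incubated 90 min at 37° C with 2.0 nM [3H]SR141716A and compound at 0.5 μM (1% DMSO) in HEPES pH 7.4 buffer with MgCl2, CaCl2, 0.2% BSA. Read-out is % inhibition of radioligand binding.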

Assay [6] deals with T2, CB2 receptor. In words: CB2 competitive radioligand binding assay ([3H] WIN-55,212-2). More on the design: expressed in transfected cells; host or cells: CHO-K1 cells. Conditions: for Fold Selectivity (CB1/CB2): Table 3, ratio of Ki CB1/CB2. In short, it runs like this:
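CHO-K1 cells expressing human recombinant CB2 were incubated with compound (0.05 μM, 1% DMSO) and 2.4 nM [3H]WIN-55,212-2 in 20 mM HEPES pH 7.0, 0.5% BSA for 90 min at 37 °C. Percent inhibition of radioligand binding was reported.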

Structures are written as SMILES.

In general, Ki refers to a measure of affinity in units of concentration, obtained from inhibition or displacement. A lower Ki goes with higher affinity.

T2 sequence (P34972 whole entry): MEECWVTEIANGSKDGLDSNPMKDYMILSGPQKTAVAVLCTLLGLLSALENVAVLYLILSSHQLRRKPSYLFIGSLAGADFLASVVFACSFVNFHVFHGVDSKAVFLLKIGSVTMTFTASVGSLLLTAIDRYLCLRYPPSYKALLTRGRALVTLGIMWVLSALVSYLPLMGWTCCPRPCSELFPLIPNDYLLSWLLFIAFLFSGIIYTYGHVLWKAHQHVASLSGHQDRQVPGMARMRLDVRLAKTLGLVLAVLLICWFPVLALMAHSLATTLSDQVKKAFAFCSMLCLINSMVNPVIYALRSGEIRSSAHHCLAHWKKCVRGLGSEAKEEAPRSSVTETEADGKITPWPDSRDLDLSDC
T1 sequence (P21554 whole entry, the tested form may be a part): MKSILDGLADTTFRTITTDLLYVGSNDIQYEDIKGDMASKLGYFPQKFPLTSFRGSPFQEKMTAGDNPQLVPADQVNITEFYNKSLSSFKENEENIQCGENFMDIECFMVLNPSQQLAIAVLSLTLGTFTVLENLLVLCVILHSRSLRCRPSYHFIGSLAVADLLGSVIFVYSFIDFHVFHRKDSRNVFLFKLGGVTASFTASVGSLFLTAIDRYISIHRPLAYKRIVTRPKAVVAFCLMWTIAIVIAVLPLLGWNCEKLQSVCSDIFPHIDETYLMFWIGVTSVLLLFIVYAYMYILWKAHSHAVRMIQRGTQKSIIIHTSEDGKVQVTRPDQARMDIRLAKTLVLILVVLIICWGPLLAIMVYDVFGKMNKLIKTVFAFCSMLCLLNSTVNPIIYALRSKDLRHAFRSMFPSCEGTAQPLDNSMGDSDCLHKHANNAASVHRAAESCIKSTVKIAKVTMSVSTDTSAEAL

In the assay on LPS-induced PBMCs, `CCCCCCC(C)(C)c1cc(O)c2c(c1)OC(C)(C)[C@@H]1CC=C(C(=O)NC3(C(F)(F)F)CC3)C[C@@H]21` [Compound 99, (6aR,10aR)-1-hydroxy-N-(1-trifluoromethyl-cyclopropyl)-6,6-dimethyl-3-(2-methyloctan-2-yl)-6a,7,10,10a-tetrahydro-6H-benzo[c]chromene-9-carboxamide] had an IL17A of 1.2 fold change, an IL-1β of 1.2 fold change, an IL-4 of −1.4 fold change and an IL-6 of −2.6 fold change. Besides, in the assay on LPS-induced PBMCs, the IL-8 is −1.0 fold change, the IL-10 was −7.0 fold change, the MCP-1 is reported as −3.3 fold change and the TNFα is given as −1.4 fold change. Also, in the assay with LPS-induced PBMCs, the “IL-12 (p70)” value is reported as −1.6 fold change and the L-31 is −1.1 fold change. At CB1 receptor [1], the EC50 is 19.1 nM. At CB1 receptor [2], this molecule had an EC50 of 32.5 nM. At CB2 receptor [3], this molecule had an EC50 of 1.3 nM and a CB2 fold selectivity of 14.9. The EC50 at CB2 receptor [4] was 1.2 nM. This molecule also displayed a Ki at CB1 receptor [5] of 8.9 nM. Moreover, at CB2 receptor [6], the affinity, expressed as Ki, was 2 nM and the “Fold Selectivity (CB1/CB2)” value is on record as 4.5.

In the assay with LPS-induced PBMCs, `CCCCCCC(C)(C)c1cc(O)c2c(c1)OC(C)(C)[C@@H]1CC=C(C(=O)NC3CC(F)(F)C3)C[C@@H]21` [Compound 89, (6aR,10aR)-N-(3,3-difluorocyclobutyl)-1-hydroxy-6,6-dimethyl-3-(2-methyloctan-2-yl)-6a,7,10,10a-tetrahydro-6H-benzo[c]chromene-9-carboxamide] registered an IL17A of −14.0 fold change, an IL-1β of −4.8 fold change, an IL-4 of −3.8 fold change and an IL-6 of −237.0 fold change. In the assay on LPS-induced PBMCs, this molecule displayed an IL-8 of −4.2 fold change, an IL-10 of −960.1 fold change, an MCP-1 of −143.8 fold change and a TNFα of −35.6 fold change. Also, the EC50 at CB1 receptor [1] was 43.6 nM. Moreover, the EC50 on CB1 receptor [2] amounted to 33 nM. At CB2 receptor [3], this molecule gave an EC50 of 1.3 nM and a CB2 fold selectivity of 34.6. For the same molecule, the EC50 on CB2 receptor [4] is 1.9 nM. The molecule further came in with an inhibition constant (Ki) at CB1 receptor [5] of 62 nM. Besides, on CB2 receptor [6], the Ki is 4.3 nM and the “Fold Selectivity (CB1/CB2)” value turned out to be 14.4.

In the assay on LPS-induced PBMCs, `CCCCC(C)(C)c1cc(O)c2c(c1)OC(C)(C)[C@@H]1CC=C(C(=O)O)C[C@@H]21` [Compound 109] returned an IL17A of 1.2 fold change, an IL-1β of −3.3 fold change, an IL-4 of −1.5 fold change and an IL-6 of −1.4 fold change. In the assay with LPS-induced PBMCs, the IL-8 was −1.0 fold change, the IL-10 is given as −1.3 fold change, the MCP-1 is given as −5.0 fold change and the TNFα was −1.3 fold change. Further, in the assay with LPS-induced PBMCs, the “IL-12 (p70)” value is given as −1.6 fold change and the L-31 is −1.5 fold change. Besides, at CB1 receptor [1], the EC50 turned out to be 1220 nM. The EC50 on CB1 receptor [2] (PathHunter agonist mode, read-out: CB1 Activity (β-Arrestin)) is above 3000 nM. On CB2 receptor [3], the EC50 came out at 148 nM and the CB2 fold selectivity turned out to be 8.3. Moreover, the EC50 on CB2 receptor [4] is 58.1 nM. The molecule further returned a Ki on CB1 receptor [5] above 3000 nM. The molecule further had an inhibition constant Ki at CB2 receptor [6] above 3000 nM.

On to `CCCCCCC(C)(C)c1cc(O)c2c(c1)OC(C)(C)[C@@H]1CC=C(C(=O)N[C@H]3C[C@H](O)C3)C[C@@H]21` [Compound 45, (6aR,10aR)-1-hydroxy-N-((1R,3R)-3-hydroxycyclobutyl)-6,6-dimethyl-3-(2-methyloctan-2-yl)-6a,7,10,10a-tetrahydro-6H-benzo[c]chromene-9-carboxamide], for which the EC50 at CB1 receptor [1] came to 274 nM; on CB1 receptor [2], 4980 nM; on CB2 receptor [3] it was 12 nM; at CB2 receptor [4], 6 nM. For the same molecule, the CB2 fold selectivity at CB2 receptor [3] is 22.9. Besides, the inhibitory constant (Ki) on CB1 receptor [5] amounted to 144 nM; at CB2 receptor [6] it was 10.1 nM. For the same molecule, the “Fold Selectivity (CB1/CB2)” value on CB2 receptor [6] is given as 14.3.

With `CCCCCCC(C)(C)c1cc(O)c2c(c1)OC(C)(C)[C@@H]1CC=C(C(=O)NC(C)(C)C)C[C@@H]21` [Compound 95, (6aR,10aR)-N-(tert-butyl)-1-hydroxy-6,6-dimethyl-3-(2-methyloctan-2-yl)-6a,7,10,10a-tetrahydro-6H-benzo[c]chromene-9-carboxamide], the EC50 stood at 13.2 nM on CB1 receptor [1], 23.9 nM on CB1 receptor [2], 1.2 nM at CB2 receptor [3] and 1.3 nM at CB2 receptor [4]. The molecule also displayed a CB2 fold selectivity at CB2 receptor [3] of 11.0. The results for the Ki at CB1 receptor [5] and at CB2 receptor [6] were 31.1 nM and 3.2 nM, respectively. Also, the “Fold Selectivity (CB1/CB2)” value at CB2 receptor [6] was found to be 9.7.

The values above are taken from patent US20210284621A1 (priority 2018, published 2021).
